# Test results: ChEMBL document CHEMBL1153583, “Organocatalytic synthesis and sterol 14alpha-demethylase binding interactions of enantioriched 3-(1H-1,2,4-triazol-1-yl)butyl benzoates” (Bioorg Med Chem Lett, 2009)
# Assay: Binding affinity to Penicillium digitatum CYP51 expressed in Escherichia coli by UV-visible spectrophotometry
row,Structure (SMILES),Kd [nM]
1,C[C@@H](CCOC(=O)c1ccc(Cl)cc1)n1cncn1,988
2,C[C@@H](CCOC(=O)c1ccccc1Cl)n1cncn1,560
3,CC(CCOC(=O)c1ccccc1Cl)n1cncn1 (racemic),1120
4,C[C@H](CCOC(=O)c1ccccc1)n1cncn1,1620
5,Cc1ccc(C(=O)OCCC(C)n2cncn2)cc1 (racemic),1740
6,Cc1ccc(C(=O)OCC[C@@H](C)n2cncn2)cc1,338
7,C[C@@H](CCOC(=O)c1ccc(Cl)cc1Cl)n1cncn1,452
8,C[C@H](CCOC(=O)c1cccc(Cl)c1)n1cncn1,2360
9,C[C@H](CCOC(=O)c1ccccc1Cl)n1cncn1,580
10,CC(C)(C)C(O)/C(=C/c1ccc(Cl)cc1Cl)n1cncn1 (centres undefined) [DINICONAZOLE],247
11,C[C@@H](CCOC(=O)c1cccc(Cl)c1)n1cncn1,472
12,C[C@@H](CCOC(=O)c1ccccc1)n1cncn1,1420
13,C[C@H](CCOC(=O)c1ccc(Cl)cc1)n1cncn1,682
14,CC(CCOC(=O)c1ccc(Cl)cc1)n1cncn1 (racemic),1380
15,CC(CCOC(=O)c1cccc(Cl)c1)n1cncn1 (racemic),743
16,Cc1ccc(C(=O)OCC[C@H](C)n2cncn2)cc1,10500
17,CC(C)(C)C(=O)C(Oc1ccc(Cl)cc1)n1cncn1 (centres undefined) [TRIADIMEFON],936
18,CC(CCOC(=O)c1ccc(Cl)cc1Cl)n1cncn1 (racemic),973
19,CC(CCOC(=O)c1ccccc1)n1cncn1 (racemic),1180
